Values of other authors in patent publication US5948887A, “Polypeptides that include conformation-constraining groups which flank a protein--protein interaction site” (Virginia Commonwealth University, priority 1997, dated 1999).
Where a SMILES comes first, the peptide text is derived from it.

System: receptors of sweet tasting papillae
Conditions: comparison value

times sweeter than sugar: 160 times
Compound: COC(=O)[C@H](Cc1ccccc1)NC(=O)[C@@H](N)CC(=O)O [aspartame] (H-Asp-Phe-OMe)
